Key:
[1] = test system: OS-RC-2; experiment: Antitumor activity against human OS-RC2 cells xenografted in nude mouse assessed as reduction in tumor volume at 24 mg/kg, iv administered once weekly measured on day 22 relative to control; type: functional
[2] = test system: Mus musculus; experiment: Toxicity in nude mouse xenografted with human OS-RC-2 cells assessed as body weight at 1.5 mg/kg, iv administered three times a week measured on day 1 (reference value: 20.4 +/- 0.33 g); type: organism-based; conditions: in vivo
[3] = test system: OS-RC-2; experiment: Antitumor activity against human OS-RC2 cells xenografted in nude mouse assessed as tumor volume at 24 mg/kg, iv administered once weekly and measured on day 1 (reference value: 167.51 +/- 17.09 mm3); type: functional
[4] = test system: Mus musculus; experiment: Toxicity in nude mouse xenografted with human OS-RC2 cells assessed as body weight loss at 1.5 mg/kg administered three times a week intravenously and measured on Day 26 (reference value: 28.2 %); type: organism-based; conditions: in vivo, iv
[5] = test system: OS-RC-2; experiment: Antitumor activity against human OS-RC2 cells xenografted in nude mouse assessed as reduction in tumor volume at 24 mg/kg, iv administered once weekly measured on day 19 relative to control; type: functional
[6] = test system: OS-RC-2; experiment: Antitumor activity against human OS-RC2 cells xenografted in nude mouse assessed as reduction in tumor volume at 1.5 mg/kg, iv administered three times a week measured on day 8 relative to control; type: functional
[7] = test system: DU-145; experiment: Antiproliferative activity against human DU145 cells after 48 hrs by MTT assay; type: functional, cell-based; conditions: DU-145, 48 h
[8] = test system: Blood; experiment: Prodrug conversion in Sprague-Dawley rat blood assessed as everolimus formation at 2 mg/kg, iv after 2 hrs by HPLC analysis; type: ADME, organism-based; conditions: in vivo
[9] = test system: NCI-H460; experiment: Antiproliferative activity against human NCI-H460 cells after 48 hrs by MTT assay; type: functional, cell-based; conditions: NCI-H460, 48 h
[10] = test system: OS-RC-2; experiment: Antitumor activity against human OS-RC2 cells xenografted in nude mouse assessed as reduction in tumor volume at 24 mg/kg, iv administered once weekly measured on day 29 relative to control; type: functional
[11] = test system: OS-RC-2; experiment: Antitumor activity against human OS-RC2 cells xenografted in nude mouse assessed as reduction in tumor volume at 24 mg/kg, iv administered once weekly measured on day 8 relative to control; type: functional
[12] = test system: OS-RC-2; experiment: Antitumor activity against human OS-RC2 cells xenografted in nude mouse assessed as reduction in tumor volume at 1.5 mg/kg, iv administered three times a week measured on day 32 relative to control; type: functional
[13] = test system: Blood; experiment: Prodrug conversion in Sprague-Dawley rat blood assessed as everolimus level at 2.724 mg/kg, iv at 1.5 hrs post dose by HPLC method; type: ADME, organism-based; conditions: in vivo
[14] = test system: Mus musculus; experiment: Toxicity in nude mouse xenografted with human OS-RC2 cells assessed as body weight loss at 24 mg/kg, iv administered once weekly measured on day 15 (reference value: 20.2 %); type: organism-based; conditions: in vivo
[15] = test system: OS-RC-2; experiment: Antitumor activity against human OS-RC2 cells xenografted in nude mouse assessed as tumor growth inhibition at 1.5 mg/kg, iv administered three times a week measured after 32 days relative to control; type: functional; conditions: OS-RC-2, iv, 768 h, read-out: TGI
[16] = test system: OS-RC-2; experiment: Antitumor activity against human OS-RC2 cells xenografted in nude mouse assessed as reduction in tumor volume at 1.5 mg/kg, iv administered three times a week measured on day 22 relative to control; type: functional
[17] = test system: OS-RC-2; experiment: Antitumor activity against human OS-RC2 cells xenografted in nude mouse assessed as tumor volume at 1.5 mg/kg, iv administered three times a week measured on day 1 (reference value: 167.51 +/- 17.09 mm3); type: functional
[18] = test system: PC-3; experiment: Antiproliferative activity against human PC3 cells after 48 hrs by MTT assay; type: functional, cell-based; conditions: PC-3, 48 h
[19] = test system: Mus musculus; experiment: Toxicity in nude mouse xenografted with human OS-RC2 cells assessed as body weight loss at 24 mg/kg, iv administered once weekly measured on day 19 (reference value: 23.1 %); type: organism-based; conditions: in vivo
[20] = test system: OS-RC-2; experiment: Antitumor activity against human OS-RC2 cells xenografted in nude mouse assessed as reduction in tumor volume at 1.5 mg/kg, iv administered three times a week measured on day 15 relative to control; type: functional
[21] = test system: OS-RC-2; experiment: Antitumor activity against human OS-RC2 cells xenografted in nude mouse assessed as reduction in tumor volume at 24 mg/kg, iv administered once weekly measured on day 12 relative to control; type: functional
[22] = test system: Blood; experiment: Prodrug conversion in Sprague-Dawley rat blood assessed as everolimus level at 2.724 mg/kg, iv at 0.0833 hrs post dose by HPLC method; type: ADME, organism-based; conditions: in vivo, 5 min
[23] = test system: HepG2; experiment: Antiproliferative activity against human HepG2 cells after 48 hrs by MTT assay; type: functional, cell-based; conditions: HepG2, 48 h
[24] = Cmax in Sprague-Dawley rat at 2.724 mg/kg, iv; type: ADME, organism-based; set-up: dose 2.724 mg/kg, route intravenous; conditions: in vivo
[25] = test system: OS-RC-2; experiment: Antitumor activity against human OS-RC2 cells xenografted in nude mouse assessed as tumor growth inhibition at 24 mg/kg, iv administered once weekly measured after 32 days relative to control; type: functional; conditions: OS-RC-2, iv, 768 h, read-out: TGI
[26] = test system: Blood; experiment: Prodrug conversion in Sprague-Dawley rat blood assessed as everolimus level at 2.724 mg/kg, iv at 24 hrs post dose by HPLC method; type: ADME, organism-based; conditions: in vivo
[27] = test system: Blood; experiment: Prodrug conversion in Sprague-Dawley rat blood assessed as everolimus level at 2.724 mg/kg, iv at 2 hrs post dose by HPLC method; type: ADME, organism-based; conditions: in vivo
[28] = test system: Rattus norvegicus; experiment: Prodrug conversion in rat assessed as everolimus formation by measuring everolimus AUC at 2 mg/kg, iv; type: ADME, organism-based; conditions: in vivo
[29] = Half life in Sprague-Dawley rat at 2.724 mg/kg, iv; type: ADME, organism-based; conditions: in vivo
[30] = test system: Blood; experiment: Prodrug conversion in Sprague-Dawley rat blood assessed as everolimus level at 2.724 mg/kg, iv at 0.5 hrs post dose by HPLC method; type: ADME, organism-based; conditions: in vivo
[31] = test system: Blood; experiment: Prodrug conversion in Sprague-Dawley rat blood assessed as everolimus level at 2.724 mg/kg, iv at 1 hr post dose by HPLC method; type: ADME, organism-based; conditions: in vivo
[32] = test system: Mus musculus; experiment: Toxicity in nude mouse xenografted with human OS-RC2 cells assessed as body weight loss at 24 mg/kg, iv administered once weekly measured on day 22 (reference value: 23.1 %); type: organism-based; conditions: in vivo
[33] = test system: OS-RC-2; experiment: Antitumor activity against human OS-RC2 cells xenografted in nude mouse assessed as tumor weight at 1.5 mg/kg, iv administered three times a week measured after 32 days (reference value: 0.68 +/- 0.06 g); type: functional
[34] = test system: Mus musculus; experiment: Toxicity in nude mouse xenografted with human OS-RC-2 cells assessed as body weight loss at 1.5 mg/kg, iv administered three times a week measured after 32 days (reference value: 33%); type: organism-based; conditions: in vivo, 768 h
[35] = test system: Mus musculus; experiment: Toxicity in nude mouse xenografted with human OS-RC-2 cells assessed as death at 24 mg/kg, iv administered once weekly measured after 32 days; type: organism-based; conditions: in vivo, 768 h
[36] = test system: Mus musculus; experiment: Toxicity in nude mouse xenografted with human OS-RC2 cells assessed as body weight loss at 24 mg/kg, iv administered once weekly measured on day 8 (reference value: 8.5 %); type: organism-based; conditions: in vivo
[37] = test system: OS-RC-2; experiment: Antitumor activity against human OS-RC2 cells xenografted in nude mouse assessed as tumor weight at 24 mg/kg, iv administered once weekly measured after 32 days (reference value: 0.68 +/- 0.06 g); type: functional

## CO[C@H]1C[C@@H]2CC[C@@H](C)[C@@](O)(O2)C(=O)C(=O)N2CCCC[C@H]2C(=O)O[C@H]([C@H](C)C[C@@H]2CC[C@@H](OCCOC(=O)CSC[C@H](NC(=O)CC[C@H](N)C(=O)O)C(=O)NCC(=O)O)[C@H](OC)C2)CC(=O)[C@H](C)/C=C(\C)[C@@H](O)[C@@H](OC)C(=O)[C@H](C)C[C@H](C)\C=C/C=C/C=C/1C
[1]
  T/C: 0.55%
[2]
  Activity: 20.67 g
[3]
  Activity: 167.06 mm3
[4]
  Activity: 13.1%
[5]
  T/C: 0.49%
[6]
  T/C: 0.57%
[7]
  IC50: 56.2 µM
[8]
  Drug metabolism: Metabolite_Detected
[9]
  IC50: 27.2 µM
[10]
  T/C: 0.54%
[11]
  T/C: 0.41%
[12]
  T/C: 0.52%
[13]
  Drug metabolism: 40.4142 ng/mL
[14]
  Activity: 8.9%
[15]
  inhibition in vivo at 1.5 mg/kg: 57.1%
[16]
  T/C: 0.56%
[17]
  Activity: 167.6 mm3
[18]
  IC50: 25.9 µM
[19]
  Activity: 10.2%
[20]
  T/C: 0.55%
[21]
  T/C: 0.47%
[22]
  Drug metabolism: 8421.1173 ng/mL
[23]
  IC50: 11.1 µM
[24]
  Cmax: 8420 ng/mL
[25]
  inhibition in vivo at 24 mg/kg: 60.6%
[26]
  Drug metabolism: 2.3295 ng/mL
[27]
  Drug metabolism: 28.155 ng/mL
[28]
  AUC: 2500 ng·h/mL
[29]
  half-life: 2.3 h
[30]
  Drug metabolism: 326.1655 ng/mL
[31]
  Drug metabolism: 73.5532 ng/mL
[32]
  Activity: 10.2%
[33]
  Activity: 0.29 g
[34]
  Activity: 12.3%
[35]
  Activity: Non-Toxic
[36]
  Activity: 5.3%
[37]
  Activity: 0.26 g

Reference: ChEMBL document CHEMBL4049384, “Synthesis and evaluation of an injectable everolimus prodrug” (Bioorg Med Chem Lett, 2017)
